A short description of series [1]: pKa and log P of the compound of formula I. It counts as physicochemical. From the text: (§1) A particularly useful compound for use in the present invention is the compound represented by the chemical structural formula I comprising: [drawing 5] This compound is chemically known as 1-[(1-acetyl-4-piperidinyl)acetyl]-2(S)-(1,1-dimethylethyl)-4(S)*4-[phenyl [4(trifluoromethoxy)phenyl]methyl]piperazine and has a molecular weight of 559.3 g/mole. It is a weak base with a pKa of 4.0 corresponding to the ionization of the piperazine ring. The value of log P is 3.0 and the log D at pH 7.4 is calculated to be 2.9. […] The compound is very soluble in both ethanol and methanol (>150 mg/mL). The solubility in most common organic solvents, such as acetonitrile, dimethyl sulfoxide (DMSO), methylene chloride, ethyl acetate, isopropyl alcohol, hexane, and acetone, generally exceeds 50 mg/mL. The free form of the compound is amorphous, but a crystalline hydrogen sulfate salt of this compound can be made. The X-ray powder diffraction (XRPD) patterns of the amorphous free base and the crystalline hydrogen sulfate salt are shown in FIG. 1.

Series [2] is described as follows: Solubility of the compound in aqueous media and in organic solvents. It counts as physicochemical.
From the text: as §1

The nature of series [3]: Evaluation of suspension in 0.4% HPMC solution or water (pH, chemical and physical stability, re-suspensibility). It counts as physicochemical. From the text:
With proper ratios of carrier to compound, free flowing and uniform powders or solids can be produced. These powders or solids should have the original molecular characteristics of the adsorbed chemicals. The residual solvent (EtOH) used in this process can be reduced to 20 ppm level. These flowable powders or solids are suspended in an aqueous solution, such as 0.4% HPMC solution or water.
The flowable powders or solids have been tested to be very stable for at least two weeks chemically and physically at room temperature (RT) and ICH RH4 conditions (40° C. and 75% relative humility). The suspension solutions (SiO2-Compound or MCC-Compound in 0.4% HPMC solution or water) are also very stable both chemically and physically for at least two weeks at room temperature. The evaluation of SiO2-Compound and MCC-Compound are shown in Example 1.
Preparation of SiO2-Compound of Formula I samples may be carried out by the following representative steps. Uniformly mix 0.5 grams of API free form (amorphous) with 1.0 grams of SiO2 (Syliod®) 244 FP) in a container using a magnetic stirrer. Then add 5.0 mL of ethanol to the container to dissolve the compound completely. Stir at room temperature and dry the solution under N2 gas until a slurry is formed. Dry the slurry at increasing temperature beginning at 25° C. ending at 50° C. over a duration of 1 hour and at 50° C. for overnight under house vacuum. […]

The nature of series [4]: In-vivo pharmacokinetic (PK) studies. Set-up: species or system rats and dogs. The following applies: Dose 10 mg/kg. From the text:
In-vivo pharmacokinetic (PK) studies in rats and dogs with these compositions show better PK results in terms of AUC, Cmax, and dose proportionality than that of compound only.

Each structure is given as a SMILES string. Values joined by “and” are separate entries in the source; they are usually repeats but may differ in a detail not shown here. Equal entries are not always repeated. Bounds are passed on as bounds.

The molecule `CC(=O)N1CCC(CC(=O)N2CCN(C(c3ccccc3)c3ccc(OC(F)(F)F)cc3)C[C@@H]2C(C)(C)C)CC1` (stereo partly drawn) [Compound of Formula I, 1-[(1-acetyl-4-piperidinyl)acetyl]-2(S)-(1,1-dimethylethyl)-4(S)*4-[phenyl [4(trifluoromethoxy)phenyl]methyl]piperazine] returned a logP in series [1] of 3. Moreover, the pKa in series [1] (weak base, ionization of the piperazine ring) amounted to 4. The solubility in series [2] (aqueous media, aqueous buffer, pH 4.0) is 1.9 µg/mL and 3.4 µM; in series [2] (aqueous media, pH 2.3, aqueous buffer) it was 74.6 µg/mL and 133 µM; in series [2] (aqueous media, pH 7.4, aqueous buffer, pH greater than 7.4) it was < 1 µg/mL and < 2 µM; in series [2] (organic solvent or mixture, in both ethanol and methanol), more than 150 mg/mL; in series [2] (organic solvent or mixture, most common organic solvents (acetonitrile, DMSO, methylene chloride, ethyl acetate, isopropyl alcohol, hexane, acetone)), more than 50 mg/mL. Moreover, the “behaviour when suspended in 0.4% HPMC solution” value in series [3] (SiO2 sample at 100 mg/mL, MCC sample at 102 mg/mL, free form as reference) was “forms a gum”. In series [3] (aqueous media), the “behaviour when suspended in aqueous media” value is recorded as “forms a gum”. Moreover, the “% AUC (infinity)” value in series [4] came out at 1.2%. The AUC(0-t) in series [4] (in vivo) is 2520 ng·h/mL and 4.5 µM·h. The Cmax in series [4] (in vivo) is 260 ng/mL and 500 nM. Further, in series [4] (in vivo), the Tmax came to 3.3 h. The AUC(0-inf) in series [4] (in vivo, read-out: AUC (infinity)) is 4.6 µM·h and 2550 ng·h/mL.

The values above are taken from patent US20050153976A1, “Pharmaceutical compositions” (SCHERING CORPORATION, priority 2003, published 2005).
